Holding throughout (assay type): in vivo
Test [1] has as its system Alopecurus myosuroides. The experiment in a line: Pre-emergence herbicidal effect. To be noted: visual score after 3 weeks. A digest of the protocol: (§1)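 Seeds sown in sandy loam in wood-fibre pots and covered with soil; compounds as WP or EC applied as aqueous suspension/emulsion to the soil surface at 600 to 800 l/ha water with 0.2% wetting agent. Greenhouse growth; damage scored visually after 3 weeks versus untreated controls (0% = like control, 100% = dead).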

Test [2] concerns Echinochloa crus-galli. Nature of the test: Pre-emergence herbicidal effect. To be noted: visual score after 3 weeks. A digest of the protocol: as §1
Test [3] has as its system Lolium multiflorum. The experiment in a line: Pre-emergence herbicidal effect. Particulars: visual score after 3 weeks. In a few lines: as §1
Test [4] relates to Setaria viridis. The experiment in a line: Pre-emergence herbicidal effect. To be noted: visual score after 3 weeks. In a few lines:
as §1

The subject of test [5] is Alopecurus myosuroides. Nature of the test: Post-emergence herbicidal effect. To be noted: visual assessment after about 3 weeks. A digest of the protocol:
(§2)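 Greenhouse plants in sandy loam were sprayed at the one-leaf stage, 2 to 3 weeks after sowing, with WP or EC formulations at 600 to 800 l/ha water with 0.2% wetting agent. After about 3 weeks, action was scored visually as percent versus untreated controls (100% = plants died, 0% = like control).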

The test system of test [6] is Avena fatua. The experiment in a line: Post-emergence herbicidal effect. To be noted: 80 g/ha, visual assessment after about 3 weeks. In a few lines:
as §2

The subject of test [7] is Echinochloa crus-galli. Nature of the test: Post-emergence herbicidal effect. To be noted: visual assessment after about 3 weeks. A digest of the protocol: as §2
In test [8] the test system is Lolium multiflorum. Nature of the test: Post-emergence herbicidal effect. Particulars: visual assessment after about 3 weeks. In a few lines:
as §2

The next test has as its system Polygonum convolvulus. Nature of the test: Post-emergence herbicidal effect. Particulars: 80 g/ha, visual assessment after about 3 weeks. In a few lines:
as §2

The subject of test [9] is Setaria viridis. Nature of the test: Post-emergence herbicidal effect. To be noted: visual assessment after about 3 weeks. A digest of the protocol:
as §2

Test [10] has as its system Avena fatua. The experiment in a line: Pre-emergence herbicidal effect. To be noted: visual score after 3 weeks. In a few lines: as §1
Test [11] deals with Veronica persica. The experiment in a line: Pre-emergence herbicidal effect. Particulars: 320 g/ha, visual score after 3 weeks. A digest of the protocol:
as §1

Test [12] has as its system Veronica persica. The experiment in a line: Post-emergence herbicidal effect. To be noted: 80 g/ha, visual assessment after about 3 weeks. In a few lines: as §2

Structures are written as SMILES.

`CCc1cc(C#CC2CC2)cc(C)c1C1=C(O)C2(CCC(COC)CC2)NC1=O` (stereo not shown) [Example I-7]: the “Pre-emergence effectiveness ALOMY” value in the test with Alopecurus myosuroides [1] (80 g/ha) was 80%; in the test on Alopecurus myosuroides [1] (320 g/ha) it was 100%. The “Pre-emergence effectiveness ECHCG” value in the test with Echinochloa crus-galli [2] (80 g/ha) and in the test on Echinochloa crus-galli [2] (320 g/ha) was 100% throughout. Besides, the “Pre-emergence effectiveness LOLMU” value with Lolium multiflorum [3] (80 g/ha) and in the test on Lolium multiflorum [3] (320 g/ha) was 100% each time. The “Pre-emergence effectiveness SETVI” value in the test with Setaria viridis [4] (80 g/ha) turned out to be 90%; in the test with Setaria viridis [4] (320 g/ha), 100%. Further, the “Post-emergence effectiveness ALOMY” value with Alopecurus myosuroides [5] (20 g/ha) stood at 90%; in the test on Alopecurus myosuroides [5] (80 g/ha) it was 100%. The “Post-emergence effectiveness AVEFA” value in the test on Avena fatua [6] worked out at 100%. Moreover, the “Post-emergence effectiveness ECHCG” value in the test on Echinochloa crus-galli [7] (20 g/ha) and in the test on Echinochloa crus-galli [7] (80 g/ha) was 100% in each case. The results for the “Post-emergence effectiveness LOLMU” value in the test on Lolium multiflorum [8] (20 g/ha) and with Lolium multiflorum [8] (80 g/ha) were 90% and 100%, respectively. The “Post-emergence effectiveness POLCO” value in the test on Polygonum convolvulus came out at 80%. The “Post-emergence effectiveness SETVI” value in the test with Setaria viridis [9] (20 g/ha) and with Setaria viridis [9] (80 g/ha) was 100% each time.
Take `CC#Cc1cc(C)c(C2=C(OC(=O)C(C)C)C3(CCC(COC)CC3)NC2=O)c(CC)c1` (stereo not shown) [Ia-3]: the “Pre-emergence effectiveness ALOMY” value in the test on Alopecurus myosuroides [1] (80 g/ha) is given as 90%; in the test with Alopecurus myosuroides [1] (320 g/ha) it was 100%. For the same compound, the “Pre-emergence effectiveness AVEFA” value stood at 80% in the test on Avena fatua [10] (80 g/ha) and 90% in the test on Avena fatua [10] (320 g/ha). The “Pre-emergence effectiveness ECHCG” value in the test with Echinochloa crus-galli [2] (80 g/ha) and in the test on Echinochloa crus-galli [2] (320 g/ha) was 100% in each case. Further, the “Pre-emergence effectiveness LOLMU” value in the test on Lolium multiflorum [3] (80 g/ha) and with Lolium multiflorum [3] (320 g/ha) was 100% throughout. Besides, the “Pre-emergence effectiveness SETVI” value with Setaria viridis [4] (80 g/ha) and with Setaria viridis [4] (320 g/ha) was 100% each time. In addition, the “Pre-emergence effectiveness VERPE” value in the test with Veronica persica [11] was found to be 90%. The “Post-emergence effectiveness ALOMY” value with Alopecurus myosuroides [5] (20 g/ha) was found to be 90%; with Alopecurus myosuroides [5] (80 g/ha), 100%. Further, the “Post-emergence effectiveness ECHCG” value was determined as 90% in the test on Echinochloa crus-galli [7] (20 g/ha) and 100% in the test on Echinochloa crus-galli [7] (80 g/ha). In addition, the “Post-emergence effectiveness LOLMU” value with Lolium multiflorum [8] (80 g/ha) is listed as 100%. Moreover, the “Post-emergence effectiveness SETVI” value in the test with Setaria viridis [9] (20 g/ha) was 90%; with Setaria viridis [9] (80 g/ha), 100%. Also, the “Post-emergence action VERPE” value in the test on Veronica persica [12] is 90%.

(Values after patent publication US10899709B2, “Novel-alkynyl-substituted 3-phenylpyrrolidine-2,4-diones and use thereof as herbicides” (BAYER CROPSCIENCE AKTIENGESELLSCHAFT, priority 2015, dated 2021).)
